In brackets after ≈: the same amount, converted by molar mass.
Tests used:
Staphylococcus aureus [1] = assay: Antibacterial activity against Staphylococcus aureus EMRSA17; format: functional
Enterococcus faecalis [2] = assay: Antibacterial activity against vancomycin-resistant Enterococcus faecalis; format: functional
Staphylococcus aureus [3] = assay: Antibacterial activity against Staphylococcus aureus NCTC12493
Micrococcus luteus = assay: Antibacterial activity against Micrococcus luteus; format: functional
Enterococcus faecalis [4] = assay: Antibacterial activity against Enterococcus faecalis NCTC12697; format: functional
Bacillus cereus = assay: Antibacterial activity against Bacillus cereus; format: functional
Bacillus subtilis = assay: Antibacterial activity against Bacillus subtilis; format: functional
HaCaT [5] = assay: Cytotoxicity against human HaCaT cells at 160 ug/ml incubated for 24 hrs by LDH release assay; format: cell-based; details: dose 160 µg/ml
HaCaT [6] = assay: Cytotoxicity against human HaCaT cells at 160 ug/ml incubated for 24 hrs by LDH release assay (reference value: 23.7 +/- 1.4%); format: cell-based; details: at 160 µg/mL

Row | Compound | MIC (Staphylococcus aureus [1]) [µg/mL] | MIC (Enterococcus faecalis [2]) [µg/mL] | MIC (Staphylococcus aureus [3]) [µg/mL] | MIC (Micrococcus luteus) [µg/mL] | MIC (Enterococcus faecalis [4]) [µg/mL] | MIC (Bacillus cereus) [µg/mL] | MIC (Bacillus subtilis) [µg/mL] | Activity (HaCaT [5]) | Activity (HaCaT [6]) [%]
1 | O=C1O/C(=C\c2cc(Br)c(O)c(Br)c2)C(c2cccs2)=C1C(=O)c1cc(Br)c(O)c(Br)c1 | 16 (≈ 22.7 µM) | 8 (≈ 11.3 µM) | 16 (≈ 22.7 µM) | 8 (≈ 11.3 µM) | 16 (≈ 22.7 µM) | 8 (≈ 11.3 µM) | 8 (≈ 11.3 µM) |  | 
2 | O=C1O/C(=C\c2ccco2)C(c2cc(Br)c(O)c(Br)c2)=C1C(=O)c1ccco1 | 128 (≈ 253 µM) | 256 (≈ 506 µM) | 64 (≈ 126 µM) | 256 (≈ 506 µM) | 256 (≈ 506 µM) | 128 (≈ 253 µM) | 256 (≈ 506 µM) |  | 
3 | O=C1O/C(=C\c2cc(Br)c(O)c(Br)c2)C(c2cc(Br)c(O)c(Br)c2)=C1C(=O)c1ccco1 | 64 (≈ 92.8 µM) | 64 (≈ 92.8 µM) | 32 (≈ 46.4 µM) | 32 (≈ 46.4 µM) | 128 (≈ 186 µM) | 16 (≈ 23.2 µM) | 32 (≈ 46.4 µM) |  | 
4 | O=C1O/C(=C\c2ccco2)C(c2ccco2)=C1C(=O)c1cc(Br)c(O)c(Br)c1 | 64 (≈ 126 µM) | 64 (≈ 126 µM) | 16 (≈ 31.6 µM) | 32 (≈ 63.2 µM) | 64 (≈ 126 µM) | 16 (≈ 31.6 µM) | 32 (≈ 63.2 µM) |  | 
5 | O=C1O/C(=C\c2ccc(O)c(Br)c2)C(c2cc(Br)c(O)c(Br)c2)=C1C(=O)c1cc(Br)c(O)c(Br)c1 [CADIOLIDE D] | 64 (≈ 80.5 µM) | 64 (≈ 80.5 µM) | 32 (≈ 40.3 µM) | 64 (≈ 80.5 µM) | 64 (≈ 80.5 µM) | 32 (≈ 40.3 µM) | 64 (≈ 80.5 µM) |  | 
6 | O=C1O/C(=C\c2ccco2)C(c2ccc(O)c(Br)c2)=C1C(=O)c1ccc(O)c(Br)c1 | 64 (≈ 120 µM) | 128 (≈ 241 µM) | 32 (≈ 60.1 µM) | 32 (≈ 60.1 µM) | 128 (≈ 241 µM) | 32 (≈ 60.1 µM) | 32 (≈ 60.1 µM) |  | 
7 | O=C1O/C(=C\c2cccs2)C(c2cc(Br)c(O)c(Br)c2)=C1C(=O)c1cc(Br)c(O)c(Br)c1 | 256 (≈ 363 µM) | 32 (≈ 45.3 µM) | 32 (≈ 45.3 µM) | 128 (≈ 181 µM) | 64 (≈ 90.7 µM) | 64 (≈ 90.7 µM) | 32 (≈ 45.3 µM) |  | 
8 | O=C1O/C(=C\c2ccc(O)c(Br)c2)C(c2ccc(O)c(Br)c2)=C1C(=O)c1ccc(O)c(Br)c1 | 8 (≈ 12.6 µM) | 32 (≈ 50.2 µM) | 8 (≈ 12.6 µM) | 8 (≈ 12.6 µM) | 16 (≈ 25.1 µM) | 8 (≈ 12.6 µM) | 16 (≈ 25.1 µM) | Non-Toxic | 
9 | GENTAMICIN | > 64 | 8 |  | 0.25 | 8 | 0.25 | 0.25 |  | 
10 | CCCN1C(=O)C(C(=O)c2ccco2)=C(c2ccc(O)c(Br)c2)C1=Cc1ccc(O)c(Br)c1 (mixture of isomers) | 16 | 16 | 8 | 16 | 16 | 4 | 8 |  | 55.7
11 | O=C1O/C(=C\c2ccc(O)c(Br)c2)C(c2ccc(O)c(Br)c2)=C1C(=O)c1cccs1 | 16 (≈ 29.2 µM) | 32 (≈ 58.4 µM) | 8 (≈ 14.6 µM) | 8 (≈ 14.6 µM) | 32 (≈ 58.4 µM) | 4 (≈ 7.3 µM) | 8 (≈ 14.6 µM) |  | 
12 | Cn1cc(/C=C2\OC(=O)C(C(=O)c3ccc(O)c(Br)c3)=C2c2ccc(O)c(Br)c2)c2ccccc21 | 8 (≈ 13.4 µM) | 8 (≈ 13.4 µM) | 2 (≈ 3.36 µM) | 2 (≈ 3.36 µM) | 16 (≈ 26.9 µM) | 2 (≈ 3.36 µM) | 4 (≈ 6.72 µM) | Non-Toxic | 
13 | O=C1O/C(=C\c2c[nH]c3ccccc23)C(c2ccc(O)c(Br)c2)=C1C(=O)c1ccc(O)c(Br)c1 | 4 (≈ 6.88 µM) | 8 (≈ 13.8 µM) | 2 (≈ 3.44 µM) | 8 (≈ 13.8 µM) | 8 (≈ 13.8 µM) | 4 (≈ 6.88 µM) | 8 (≈ 13.8 µM) | Non-Toxic | 
14 | CN[C@H](CC(C)C)C(=O)N[C@H]1C(=O)N[C@@H](CC(N)=O)C(=O)N[C@H]2C(=O)N[C@H]3C(=O)N[C@H](C(=O)N[C@H](C(=O)O)c4cc(O)cc(O)c4-c4cc3ccc4O)[C@H](O)c3ccc(c(Cl)c3)Oc3cc2cc(c3O[C@@H]2O[C@H](CO)[C@@H](O)[C@H](O)[C@H]2O[C@H]2C[C@](C)(N)[C@H](O)[C@H](C)O2)Oc2ccc(cc2Cl)[C@H]1O [VANCOMYCIN] |  | > 64 |  | ≤ 0.13 |  |  | 0.5 (≈ 0.345 µM) |  | 
15 | O=C1O/C(=C\c2cc(Br)c(O)c(Br)c2)C(c2ccco2)=C1C(=O)c1cc(Br)c(O)c(Br)c1 | 64 (≈ 92.8 µM) | 64 (≈ 92.8 µM) | 32 (≈ 46.4 µM) | 16 (≈ 23.2 µM) | 32 (≈ 46.4 µM) | 16 (≈ 23.2 µM) | 16 (≈ 23.2 µM) |  | 
16 | O=C1O/C(=C\c2cccs2)C(c2ccc(O)c(Br)c2)=C1C(=O)c1cc(Br)c(O)c(Br)c1 | 32 (≈ 51 µM) | 32 (≈ 51 µM) | 8 (≈ 12.8 µM) | 32 (≈ 51 µM) | 32 (≈ 51 µM) | 8 (≈ 12.8 µM) | 4 (≈ 6.38 µM) |  | 

— ChEMBL document CHEMBL4665840, “New antibacterial cadiolide analogues active against antibiotic-resistant strains” (Bioorg Med Chem Lett, 2020)
